Literature values in patent US6576633B1, “Stable liquid antimicrobial suspension compositions containing quarternaries prepared from hexamethylenetetramine and certain halohydrocarbons” (The Dow Chemical Company, priority 1996, dated 2003).

Conditions: conventional 30 percent aqueous solution; within one month

| Compound | chemical degradation |
| --- | --- |
| ClC=CC[N+]12CN3CN(CN(C3)C1)C2.[Cl-] (mixture of isomers) [cis/trans-compound, 1-(3-chloroallyl)-3,5,7-triaza-1-azoniaadamantane chloride] | ~30% |
| ClC=CC[N+]12CN3CN(CN(C3)C1)C2.[Cl-] [cis-compound, 1-(3-chloroallyl)-3,5,7-triaza-1-azoniaadamantane chloride] | ~30% |
